Laboratory results from patent US6489338B2, “Imidazopyridine and imidazopyrimidine antiviral agents” (Bristol-Myers Squibb Company, priority 2000, dated 2002).

Tested on: respiratory syncytial virus Long strain
Assay: Antiviral activity against respiratory syncytial virus, MTT cell protection assay in HEp-2 cells
Assay type: cell-based
Conditions: HEp-2 cells infected with RSV Long strain, MTT staining
Description: The antiviral activity of these compounds against respiratory syncytial virus was determined in HEp-2 (ATCC CCL 23) cells that were seeded in 96 well microtiter plates at 1.5×10^4 cells/100 μL/well in DMEM (Dulbecco's Modified Eagle's Medium) supplemented with penicillin, streptomycin, glutamine, and 10% fetal bovine serum. The cells were incubated overnight at 37° C., the culture medium was removed, and cells were infected (100 μL volume in medium containing 2% fetal bovine serum) with respiratory syncytial virus Long strain at 5000 plaque forming units/mL. The compounds, 100 μL at appropriate dilution, were added to the cells 1 hour post infection. After incubation for 4 days at 37° C., the plates were stained with MTT solution (3-[4,5-dimethlythiazol-2-yl]-2,5-diphenyltetrazolium bromide) and incubated for 4 hours at 37° C. The media was aspirated from the cells and 100 μL/well of acidified isopropanol (per liter: 900 mL isopropanol, 100 mL Triton X100, and 4 mL conc. HCl) was added. Plates were incubated for 15 minutes at room temperature with shaking, and an optical density (OD 540) reading at 540 nanometer (nm) was obtained. The optical density reading is proportional to the number of viable cells. The increase in the number of viable cells reflects the protective, antiviral activity of the compound. […]

EC50 (human respiratory syncytial virus, compound added 1 hour post infection, 4 days at 37° C., read-out: EC50 (concentration that produces 50% cell protection)): 3000 nM
Compound: NC(=O)c1ncn([C@@H]2O[C@H](CO)[C@@H](O)[C@H]2O)n1 [Ribavirin]
cell protection (at 2.5 μg/mL (corresponding to 10.2 μM)): 100%
